Where “and” joins values, the source holds several entries; their conditions need not be identical. Equal entries are not always repeated. Where two headings read alike, the source gives them in different places.
Tests used:
[1] = biological target: T1, hCB1 (Homo sapiens, UniProt P21554); assay: bioSensAll ebBRET signaling profiling, hCB1; assay type: cell-based; parameters: host or cells: HEK293SL cells, transient PEI transfection; conditions: for GoB hCB1 / Gi1 hCB1: single replicate values, FigS6a; for EC50: read-out: EC50 [95% CI]; for Emax: normalized to CP-55,940
[2] = biological target: T1, hCB1; assay: Tango β-arrestin-2 recruitment, HTLA cells, CB1R; assay type: cell-based; parameters: expressed in transfected cells; host or cells: HTLA cells (gift of R. Axel), transient transfection

T1 sequence (P21554 whole entry): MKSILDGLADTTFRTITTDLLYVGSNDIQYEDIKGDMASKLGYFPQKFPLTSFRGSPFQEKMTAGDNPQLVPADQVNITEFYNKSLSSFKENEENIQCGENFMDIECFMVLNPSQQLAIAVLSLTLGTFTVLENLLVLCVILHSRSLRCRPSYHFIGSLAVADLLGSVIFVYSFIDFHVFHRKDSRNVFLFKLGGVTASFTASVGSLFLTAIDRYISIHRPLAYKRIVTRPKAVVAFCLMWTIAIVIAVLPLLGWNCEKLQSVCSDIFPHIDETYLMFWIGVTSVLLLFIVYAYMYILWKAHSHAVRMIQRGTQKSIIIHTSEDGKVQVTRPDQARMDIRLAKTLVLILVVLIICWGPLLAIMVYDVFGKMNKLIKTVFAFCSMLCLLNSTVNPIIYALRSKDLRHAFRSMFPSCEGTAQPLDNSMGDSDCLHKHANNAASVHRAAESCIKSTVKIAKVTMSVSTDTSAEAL

Compound: COC(=O)C(NC(=O)c1cc(C)n(-c2cccc(C(F)(F)F)c2)n1)c1cccs1 (stereo not shown) [‘60154]
- GoB hCB1 ([1]; Log [Compound] (M) -11.4949): -1.935
- Gi1 hCB1 ([1]; Log [Compound] (M) -11.9208): -0.003475
- GoB hCB1 ([1]; Log [Compound] (M) -11.9208): -0.2982
- Gi1 hCB1 ([1]; Log [Compound] (M) -12.3979): 0.3049
- GoB hCB1 ([1]; Log [Compound] (M) -12.3979): 0.619
- Gi1 hCB1 ([1]; Log [Compound] (M) -12.8861): 1.261
- GoB hCB1 ([1]; Log [Compound] (M) -12.8861): -2.69
- Gi1 hCB1 ([1]; Log [Compound] (M) -13): 0.459 and 0.9986
- GoB hCB1 ([1]; Log [Compound] (M) -13): -0.2622 and -1.953
- pEC50 [95% CI] ([1]; hCB1 Gi1): 7.6 [7.5 – 7.7]
- pEC50 [95% CI] ([1]; hCB1 GoB): 7.7 [7.7 – 7.8]
- pEC50 [95% CI] ([1]; hCB1 Gz): 7.8 [7.4 – 8.1]
- EC50 ([1]; hCB1 Gi1): 2.5 nM
- EC50 ([1]; hCB1 GoB): 18.4 nM
- EC50 ([1]; hCB1 Gz): 17.5 nM
- Emax ([1]; read-out: Emax [95% CI], hCB1 Gi1): 92%
- Emax ([1]; read-out: Emax [95% CI], hCB1 GoB): 100%
- Emax ([1]; read-out: Emax [95% CI], hCB1 Gz): 121%
- Emax ([2]; HTLA, hCB1, read-out: Tango ß-arrestin recruitment Emax): 39%
- response, replicate values of concentration-response curve (FigS7f) ([2]; Log[drug], M = -4.52): 20.429 and 104.707 and 123.061 and 26.6803 and 2.239 and 9.553 and 21.4993 and 25.3085 and 22.5804
- response at Log[drug], M -4.52 (FigS4e) ([2]; Log[drug], M = -4.52, individual replicates): 36.2928 and 40.0634 and 37.595 and 38.9593 and 35.7322 and 28.0596 and 40.2042 and 37.7287 and 36.7316 and 48.023 and 52.3904 and 37.2251
- response, replicate values of concentration-response curve (FigS7f) ([2]; Log[drug], M = -5): 29.3399 and 77.9872 and 24.9124 and 21.905 and 24.6119 and -7.914 and 14.0694 and 22.9469 and 35.7257 and 39.8379 and 27.6728 and 20.59
- response at Log[drug], M -5 (FigS4e) ([2]; Log[drug], M = -5, individual replicates): 27.1965 and 33.9994 and 36.3175 and 44.6129 and 35.5189 and 28.3176 and 42.1758 and 38.9685 and 43.9354 and 46.1208 and 46.0399 and 37.7973
- response, replicate values of concentration-response curve (FigS7f) ([2]; Log[drug], M = -5.52): 24.9035 and 48.7158 and 91.1283 and -6.947 and -26.9779 and -11.1207 and 46.9121 and 22.8407 and -5.557 and 12.4866 and 10.6983 and 18.3267
- response at Log[drug], M -5.52 (FigS4e) ([2]; Log[drug], M = -5.52, individual replicates): 25.9735 and 23.5078 and 35.2885 and 29.1149 and 28.5437 and 33.06 and 31.1872 and 38.5344 and 34.9915 and 38.6816 and 30.9446 and 24.7853
- response, replicate values of concentration-response curve (FigS7f) ([2]; Log[drug], M = -6): 35.6397 and 64.0988 and 28.3754 and -0.07579 and -2.1717 and -13.0474 and 37.7825 and -1.0184 and -20.7108 and 24.6113 and 35.271 and 22.6916
- response at Log[drug], M -6 (FigS4e) ([2]; Log[drug], M = -6, individual replicates): 18.7026 and 18.3517 and 20.9876 and 21.9355 and 21.9032 and 30.9802 and 39.6213 and 23.6016 and 27.6778 and 23.7782 and 27.0192 and 15.1437
- response, replicate values of concentration-response curve (FigS7f) ([2]; Log[drug], M = -6.52): 40.4184 and 15.2889 and -15.0213 and 0.4345 and 12.418 and 31.9131 and 56.5195 and 30.6699 and -7.454 and 15.9018 and 24.7629 and -25.11
- response at Log[drug], M -6.52 (FigS4e) ([2]; Log[drug], M = -6.52, individual replicates): 2.7065 and 1.809 and 4.4042 and 2.4679 and 5.955 and 7.47 and 7.413 and 8.766 and 8.7 and 7.813 and 3.502 and 4.219
- response, replicate values of concentration-response curve (FigS7f) ([2]; Log[drug], M = -7): 42.117 and 22.4701 and 33.4423 and -35.9633 and 6.562 and -3.7308 and 26.543 and 5.232 and -0.3284 and 16.0836 and -9.206 and -14.6626
- response at Log[drug], M -7 (FigS4e) ([2]; Log[drug], M = -7, individual replicates): -0.1594 and 1.156 and 1.734 and 0.4738 and 1.35 and 4.375 and 5.525 and -1.39 and -1.9125 and 2.9502 and 2.623 and 0.09812
- response, replicate values of concentration-response curve (FigS7f) ([2]; Log[drug], M = -7.52): 9.097 and 42.2455 and 14.1224 and 6.121 and -38.1578 and 8.235 and 7.554 and -8.104 and 19.7008 and -1.133 and -13.7734
- response at Log[drug], M -7.52 (FigS4e) ([2]; Log[drug], M = -7.52, individual replicates): -0.8122 and -1.1619 and -0.1273 and 2.722 and 1.436 and 3.312 and 3.337 and -1.53 and 0.254 and -0.2279 and 0.3901 and 2.167
- response at Log[drug], M -8 (FigS4e) ([2]; Log[drug], M = -8, individual replicates): -0.5798 and -1.11 and -0.9423 and 0.6357 and 0.4201 and 2.003 and 3.003 and -1.545 and 0.894 and 0.1363 and 0.04065 and -0.5839

— paper PMC11882969 (Nature Communications, 2025)
